Marks after values point to notes of the source that are not given here.
Tests used:
[1] = test system: fetal rat bone culture (humeri, radii and ulnae); assay: Bone resorption inhibitory activity, 45Ca release from fetal rat bone culture (Test Example 2B); type: cell-based, Sprague-Dawlay rat; settings: 10 μM compound, 2 days culture; 45Ca release as % of control without compound (lower = more inhibition)
Experimental: (§1) The measurement of bone resorption inhibitory activity was carried out according to the method of Raisz [J. Clin. Invest., 44, 103-116 (1965)]. Namely, 50 μCi of ^45Ca (radioisotope of calcium in CaCl2 solution) was subcutaneously injected into a Sprague-Dawlay rat of 18th day of pregnancy. On the next day, the abdomen was opened and a fetal rat was taken out sterilely. The left and right humeri (radii and ulnae) were removed from the body under a dissection microscope and connective tissues and cartilages were removed as much as possible. Thus, bone culture samples were prepared. The bone was incubated in a medium (0.6 ml) of BCJb medium (Fitton-Jackson modification: GIBCO Laboratories, U.S.A.) containing 2 mg/ml of bovine serum albumin at 37° C. for 24 hours in an atmosphere of 5% of CO2 in air. The bones were cultured for an additional 2 days in the above medium containing a final concentration of 10 μM of the compound. The ratio (%) of ^45Ca released from the bone into the medium was calculated according to the following equation. [formula]
The bones from the same litter were cultured for 2 days the same manner without addition of the compound, and used as the control. The mean±standard deviation of the values for five bones of each group was calculated. The ratio (%) of this value to the control value was calculated. The results are shown in Table 4 (In the tables hereinafter, Ex. No. indicates Example No.).

[2] = test system: Rat Adjuvant Arthritis; assay: Activity on rat adjuvant arthritis (Test Example 1B); type: in vivo, Male Lewis rats; settings: N=6; for Body weight gain rate (%): day 14; for Edema inhibitory rate (%): left hind paw volume day 14
Experimental: Male Lewis rats (7 weeks old, Clea Japan) were sensitized by intracutaneous injection of 0.05 ml of Freund's complete adjuvant (0.5% dead tubercle bacillus cell suspension in liquid paraffin) at the right hind paw. The test drug (6.25 mg/kg or 3.13 mg/kg), in a suspension in 0.5% methyl cellulose, was administered once daily for 14 days starting just before sensitization (day 0). At the days 0 and 14, the left hind paw volume and body weight of the animals were measured using a plethysmometer (manufactured by Ugo Basile Company, Italy) and an electronic balance (EB-3200D, manufactured by Shimadzu Corporation, Japan), respectively, and paw swelling suppression rate (%) and body weight gain rate (%), relative to non-sensitized rats, were determined.
The results, expressed in mean±S.E. for each group (N=6), were compared and statistically analyzed by Dunnet method. Level of significance was set below 5%.

[3] = test system: fetal rat bone culture (humeri, radii and ulnae); assay: Bone resorption inhibitory activity, 45Ca release from fetal rat bone culture (Test Example 2A); type: cell-based, Sprague-Dawlay rat; settings: 10 μM compound, 2 days culture; 45Ca release as % of control without compound (lower = more inhibition)
Experimental: as §1
The bones from the same litter were cultured for 2 days the same manner without addition of the compound, and used as the control. The mean±standard deviation of the values for five bones of each group was calculated. The ratio (%) of this value to the control value was calculated. The results are shown in Table 2 (In the tables hereinafter, Ex. No. indicates Example No.).

[4] = 6.25 mg/kg once daily for 14 days
[5] = 3.13 mg/kg once daily for 14 days

7-benzyl-3-chloro-4-(3,4-dimethoxyphenyl)-2-(2-oxo-1-piperidinylmethyl)-5,6,7,8-tetrahydrothieno[2,3-b:5,4-c′]dipyridine [Example 24B]
Bone resorption inhibitory inhibitory activity (^45Ca release) (% based on the control value) [1]: 44** % based on the control value

7-benzyl-3-chloro-4-(3,4-dimethoxyphenyl)-2-(2-oxo-1-pyrrolidinylmethyl)-5,6,7,8-tetrahydrothieno[2,3-b:5,4-c′]dipyridine [Example 28B]
Body weight gain rate (%) [2, 4]: 19** % | Edema inhibitory rate (%) [2, 4]: 78** % | Bone resorption inhibitory inhibitory activity (^45Ca release) (% based on the control value) [1]: 47** % based on the control value

7-benzyl-3-chloro-4-(4-hydroxy-3-methoxyphenyl)-2-(2-oxo-1-pyrrolidinylmethyl)-5,6,7,8-tetrahydrothieno[2,3-b:5,4-c′]dipyridine [Example 29B]
Body weight gain rate (%) [2, 5]: 12% | Edema inhibitory rate (%) [2, 5]: 69** %

CCOC(=O)c1c(CN(CC)CC)nc2sc3c(c2c1-c1ccc(OC)c(OC)c1)CCN(C(=O)Nc1ccccc1)C3 [Example 12A, ethyl 2-(N,N-diethylaminomethyl)-4-(3,4-dimethoxyphenyl)-7-phenylcarbamoyl-5,6,7,8-tetrahydrothieno[2,3-b:5,4-c′]dipyridine-3-carboxylate]
melting point: 154 to 155 °C | Bone resorption inhibitory activity (^45Ca release) (% based on the control value) [3]: 77* % based on the control value

COc1ccc(-c2c(Cl)c(CN3CCCCCC3=O)nc3sc4c(c23)CCN(Cc2ccccc2)C4)cc1OC [Example 25B, 7-benzyl-3-chloro-4-(3,4-dimethoxyphenyl)-2-(2-oxohexamethyleneiminomethyl)-5,6,7,8-tetrahydrothieno[2,3-b:5,4-c′]dipyridine]
melting point: 113 to 114 °C | Bone resorption inhibitory inhibitory activity (^45Ca release) (% based on the control value) [1]: 52** % based on the control value

CCOC(=O)c1c(CCCn2cncn2)nc2sc3c(c2c1-c1ccc(OC)c(OC)c1)CCN(C(=O)c1ccc(Cl)cc1)C3 [Example 27A, ethyl 7-(4-chlorobenzoyl)-4-(3,4-dimethoxyphenyl)-5,6,7,8-tetrahydro-2-[3-(1,2,4-triazol-1-yl]propyl]thieno[2,3-b:5,4-c′]dipyridine-3-carboxylate]
melting point: 114 to 116 °C | Bone resorption inhibitory activity (^45Ca release) (% based on the control value) [3]: 74* % based on the control value

CCOC(=O)c1c(CCCCn2cncn2)nc2sc3c(c2c1-c1ccc(OC)c(OC)c1)CCN(C(=O)c1ccc(Cl)cc1)C3 [Example 28A, ethyl 7-(4-chlorobenzoyl)-4-(3,4-dimethoxyphenyl)-5,6,7,8-tetrahydro-2-[4-(1,2,4-triazol-1-yl]butyl]thieno[2,3-b:5,4-c′]dipyridine-3-carboxylate]
melting point: 165 to 166 °C | Bone resorption inhibitory activity (^45Ca release) (% based on the control value) [3]: 67*** % based on the control value

CCOC(=O)c1c(CN(CC)CC)nc2sc3c(c2c1-c1ccc(CC)cc1)CCNC3 [Example 33A, ethyl 4-(4-ethylphenyl)-5,6,7,8-tetrahydro-2-(N,N-diethylaminomethyl)thieno[2,3-b:5,4-c′]dipyridine-3-carboxylate]
melting point: 107 to 108 °C | Bone resorption inhibitory activity (^45Ca release) (% based on the control value) [3]: 72** % based on the control value
